Data reported in US20130267494A1, “1,4-OXAZEPANE DERIVATIVES” (priority 2010, published 2013).
Structures can show the parent of a compound that is named as a salt.

Test system: SD female rats
Experiment: Measurement of urethral resistance increasing effect (leak point pressure, intravenous administration)
Type: in vivo, rat
Conditions: for urethral resistance increasing effect (cmH2O): SD female rats
Procedure: The urethral resistance increasing effect in rat was measured by a modified method of Matsumoto et al. (WO2009/063992) as follows. That is, SD female rats (CLEA Japan, Inc.) were anesthetized with isoflurane (1.0%; Abbott), and the spinal cord was transected at Th8-9 to avoid the voiding reflex. After laparotomy, an intravesical pressure measurement catheter and a saline infusion catheter (PE-100; Clay Adams) were inserted into the bladder. Thereafter, the abdomen of the rat was closed with aronalpha A “Sankyo” (Daiichi Sankyo). The rat with an inserted catheter was placed in a Bollman cage (KN-326 Bollman cage TYPE III; Natsume). The intravesical pressure measurement catheter was connected to a computer via a pressure transducer (REF685640; Nihon Koden), an amplifier (RPM-6008M; Nihon Koden), and a multi-channel data analyzer (MP150; Biopack), and changes in the intravesical pressure were recorded on a hard disc at a frequency of 100 samples/sec. The saline infusion catheter was connected to a 50 mL syringe (Terumo) filled with saline colored with Evans Blue (Wako). The saline was infused into the bladder from the 50 mL syringe filled with saline at a rate of 0.1 mL/sec by using an infusion pump (Kds100; KD Scientific). When the saline leaked from the urethral orifice, infusion was discontinued, and the saline in the bladder was released. The maximum pressure observed during infusion of saline into the bladder and leakage thereof was taken as an LPP (Leak point pressure) value. The measurement was repeated until the LPP value was stabilized, and an average of continuous three stable LPP values was taken as the result. […] The LPP value (Pre value) was measured, a drug was intravenously administered, and the measurement of LPP value (Post value) was again started 10 min after administration. […]
The compound of Example 6 (0.3 mg/kg), the compound of Example 6 (1.0 mg/kg) and the vehicle were administered to the rats, and the urethral resistance increasing effect was measured by the aforementioned method.

**Q.** Which “urethral resistance increasing effect (cmH2O)” value (dose 0.3 mg/kg) does the source give for `CC(=O)NC[C@H]1CNCCO[C@@H]1c1ccc(Cl)c(Cl)c1` (racemic) [Example 6, N-{[(6RS,7SR)-7-(3,4-dichlorophenyl)-1,4-oxazepan-6-yl]methyl}acetamide monohydrochloride] here?
**A.** The value was 12.8 ± 1.1 cmH2O.

**Q.** What about the “urethral resistance increasing effect (cmH2O)” value (dose 1.0 mg/kg) of the same compound?
**A.** Its value is 19.1 ± 1.8 cmH2O.

**Q.** And the “urethral resistance increasing effect (LPP Post value minus Pre value) compared to vehicle” value (spinal cord-transected SD female rats, intravenous 0.3 and 1.0 mg/kg, LPP measured from 10 min after administration, Williams' test)?
**A.** The value was “dose-dependent and significant urethral resistance increasing effect”.
